Experimental data taken from patent US9751861B2, “N1-(3,3,3-trifluoro-2-hydroxo-2-methylpropionyl)-piperidine derivatives as inhibitors of pyruvate dehydrogenase kinase” (MERCK PATENT GMBH, priority 2013, dated 2017).

Legend:
PDHK2 = target: T1, PDHK2 (Homo sapiens, UniProt Q15119); assay: Biochemical activity testing of PDHK2: PDC inactivation assay; details: human rec PDHK2, PDC from porcine heart, ATP 5 μM; read-out: IC50 PDHK2 (enzyme assay)
T1 construct: purchased Carna Bioscience
Method in brief: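 Human recombinant PDHK2 (137 nM final) preincubated 30 min at RT with porcine heart PDC (20 mU/ml) and compound in pH 7.0 phosphate buffer, then phosphorylated with 5 μM ATP for 30 min at 37 °C. Residual PDC activity read as NADH fluorescence increase (Ex 340/Em 450) over 45 min; inhibitor-free reaction as full value, 3 mM DCA as zero, IC50 derived.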

human PDHK2 (12-407) = target: T2, human PDHK2 (12-407) (Homo sapiens, UniProt Q15119); assay: Isothermal titration calorimetry (ITC) binding; details: 30° C., pH 7.5
T2 construct: The human PDHK2 (12-407) was produced in E. coli; His-tag (cleaved yes); made in house; host or cells: E. coli
Method in brief: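 Untagged PDHK2 (12-407) from E. coli at 50 μM titrated into 5 μM compound at 30° C in pH 7.5 HEPES/KCl/MgCl2/phosphate buffer, ≤1% DMSO. One-site fit gave KA, ΔH^obs and N after heat-of-dilution correction; protein concentration referenced to a standard inhibitor and compound concentration adjusted to 1:1 stoichiometry.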

PDH-Elalpha (pSer300) = assay: Cellular immunofluorescence assay in HEK293T cells; format: cell-based; details: Homo sapiens, HEK-293T, 5 hours incubation, anti-PDH-E1alpha pSer300 immunofluorescence, read-out: IC50 (cell data)
Method in brief: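 HEK293T cells were exposed to compound for 5 hours, then fixed, permeabilised and immunostained for PDH-Elalpha pSer300 with Hoechst counterstain, read by laser scanning cytometry. Percent effect was normalized to a pharmacological inhibitor control and fitted to dose-response curves.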

SMILES | IC50 (PDHK2) [nM] | Kd (human PDHK2 (12-407)) [nM] | IC50 (PDH-Elalpha (pSer300)) [nM]
Cc1cc(C2CCN(C(=O)[C@@](C)(O)C(F)(F)F)CC2)n(-c2ccc(F)cc2F)n1 [Compound A97, (R)-1-{4-[2-(2,4-Difluoro-phenyl)-5-methyl-2H-pyrazol-3-yl]-piperidin-1-yl}-3,3,3-trifluoro-2-hydroxy-2-methyl-propan-1-one] | < 300 | < 300 | 300 to 3000
Cc1cc(C2CCN(C(=O)[C@@](C)(O)C(F)(F)F)CC2)n(-c2ccccc2)n1 [Compound A98, (R)-3,3,3-Trifluoro-2-hydroxy-2-methyl-1-[4-(5-methyl-2-phenyl-2H-pyrazol-3-yl)-piperidin-1-yl]-propan-1-one] | < 300 | < 300 | 300 to 3000
C[C@@](O)(C(=O)N1CCC(c2ccnn2-c2ccc(Cl)c(F)c2)CC1)C(F)(F)F [Compound A100, (R)-1-{4-[2-(4-Chloro-3-fluoro-phenyl)-2H-pyrazol-3-yl]-piperidin-1-yl}-3,3,3-trifluoro-2-hydroxy-2-methyl-propan-1-one] | 300 to 3000 | < 300 | 300 to 3000
C[C@@](O)(C(=O)N1CCC(c2ccnn2-c2ccc(Cl)c(Cl)c2)CC1)C(F)(F)F [Compound A101, (R)-1-{4-[2-(3,4-Dichloro-phenyl)-2H-pyrazol-3-yl]-piperidin-1-yl}-3,3,3-trifluoro-2-hydroxy-2-methyl-propan-1-one] | 300 to 3000 | < 300 | 300 to 3000
C[C@@](O)(C(=O)N1CCC(c2ccn(-c3ccc(C(F)(F)F)cn3)n2)CC1)C(F)(F)F [Compound A102, (R)-3,3,3-Trifluoro-2-hydroxy-2-methyl-1-{4-[1-(5-trifluoromethyl-pyridin-2-yl)-1 H-pyrazol-3-yl]-piperidin-1-yl}-propan-1-one] | 3000 to 50000 | 300 to 3000 | 3000 to 50000
C[C@@H]1CN(C(=O)[C@@](C)(O)C(F)(F)F)CC[C@@H]1c1ccnn1-c1ccccc1 [Compound A106, (R)-3,3,3-Trifluoro-2-hydroxy-2-methyl-1-[(3S,4S)-3-methyl-4-(2-phenyl-2H-pyrazol-3-yl)-piperidin-1-yl]-propan-1-one] | < 300 | < 300 | < 300
C[C@@H]1CN(C(=O)[C@@](C)(O)C(F)(F)F)CC[C@@H]1c1ccnn1-c1ccc(F)cc1 [Compound A107, (R)-3,3,3-Trifluoro-1-{(3S,4S)-4-[2-(4-fluoro-phenyl)-2H-pyrazol-3-yl]-3-methyl-piperidin-1-yl}-2-hydroxy-2-methyl-propan-1-one] | < 300 | < 300 | < 300
COc1ccc(-n2nccc2[C@H]2CCN(C(=O)[C@@](C)(O)C(F)(F)F)C[C@H]2C)cc1 [Compound A110, (R)-3,3,3-Trifluoro-1-{(3S,4S)-4-[2-(4-methoxy-phenyl)-2H-pyrazol-3-yl]-3-methyl-piperidin-1-yl}-2-hydroxy-2-methyl-propan-1-one] | < 300 | < 300 | < 300
C[C@@H]1CN(C(=O)[C@@](C)(O)C(F)(F)F)CC[C@@H]1c1ccnn1-c1ccc(C#N)cc1 [Compound A111, 4-{5-[(3S,4S)-3-Methyl-1-((R)-3,3,3-trifluoro-2-hydroxy-2-methyl-propionyl)piperidin-4-yl]-pyrazol-1-yl}-benzonitrile] | < 300 | < 300 | < 300
C[C@@](O)(C(=O)N1CCC(c2ccnn2-c2ccc(F)cn2)CC1)C(F)(F)F [Compound A112, (2R)-1-[4-[2-(5-Fluoro-2-pyridyl)-2H-pyrazol-3-yl]-1-piperidyl]-3,3,3-trifluoro-2-hydroxy-2-methyl-propan-1-one] | 300 to 3000 | < 300 | 3000 to 50000
COc1ccc(-n2nccc2[C@H]2CCN(C(=O)[C@@](C)(O)C(F)(F)F)C[C@H]2C)cn1 [Compound A113, (R)-3,3,3-Trifluoro-1-{(3S,4S)-4-[2-(6-methoxy-pyridin-3-yl)-2H-pyrazol-3-yl]-3-methyl-piperidin-1-yl}-2-hydroxy-2-methyl-propan-1-one] | < 300 | < 300 | < 300
